For experiment [1], the target named is T1, Human LBAT (Homo sapiens, UniProt Q14973).
T1 construct: expressed in transfected cells; Geneticin-selected
T1 sequence (Q14973 1-349): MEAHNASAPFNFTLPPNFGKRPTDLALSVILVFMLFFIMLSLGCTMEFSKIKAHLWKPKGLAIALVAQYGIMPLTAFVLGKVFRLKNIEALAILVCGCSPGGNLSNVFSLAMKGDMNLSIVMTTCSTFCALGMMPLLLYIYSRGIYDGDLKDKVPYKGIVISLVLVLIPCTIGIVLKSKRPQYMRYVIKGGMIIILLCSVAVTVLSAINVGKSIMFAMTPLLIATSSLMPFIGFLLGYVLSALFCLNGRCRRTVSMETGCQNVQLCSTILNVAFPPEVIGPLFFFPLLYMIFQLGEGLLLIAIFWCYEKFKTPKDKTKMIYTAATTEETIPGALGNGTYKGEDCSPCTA
As to the kind of experiment: LBAT (h/m) assay, human LBAT-overexpressing cells, 3H-taurocholic acid uptake. It is filed as cell-based. Conditions: 0.3 μM 3H-taurocholic acid and 7.5 μM cold taurocholic acid, 20 minutes, read-out: hLBAT IC50. The protocol: LBAT (h/m) Assay Protocol
20,000 cells (Human or Mouse LBAT-overexpressing cells) were seeded in 96-wells plate (Corning CLS3809) in 100 μL MEM-alpha medium (Gibco 12571-063) supplemented with 10% FBS (Gibco 10438026) containing Geneticin (Gibco 10131-027) (1 mg/mL) and incubated at 37° C. in 5% CO2 for 24 hours. After incubation, media was decanted from the wells and cells were washed two times with 300 μL of basal MEM-alpha medium (FBS-free). After decanting basal MEM-alpha medium each time, plates were tapped against paper towel to ensure maximum removal of residual media.
For human LBAT, incubation mix was prepared by adding test inhibitor dilutions (3-fold serial dilution in DMSO (Sigma D2650), 10 points) in MEM-alpha (without FBS) containing 0.3 μM 3H-taurocholic acid (ARC ART-1368) and 7.5 μM cold taurocholic acid (Sigma T4009) (maintaining 0.2% final DMSO concentration). For mouse LBAT, incubation mix was prepared by adding test inhibitor dilutions (3-fold serial dilution in DMSO, 10 points) in MEM-alpha (without FBS) containing 0.3 μM 3H-taurocholic acid and 25 μM cold taurocholic acid maintaining 0.2% final DMSO concentration). 50 μL of incubation mix containing test inhibitors was then added to the wells (in duplicate) and the plates were incubated for 20 minutes in a CO2 incubator at 37° C. After incubation, the reaction was stopped by keeping the plates on ice water mix for 2-3 minutes and then the incubation mix was aspirated completely from the wells. The wells were washed two times with 250 μL of chilled unlabelled 1 mM taurocholic acid dissolved in HEPES (Gibco 15630080)-buffered (10 mM) HBSS (Gibco 14175079) (pH 7.4). The plates were tapped against a paper towel after every wash to ensure maximum removal of blocking buffer. 100 μL of MicroScint-20 (PerkinElmer 6013621) was added to the wells and kept overnight at room temperature before reading the plates in TopCount NXT™ Microplate Scintillation and Luminescence Counter from PerkinElmer under 3H Test protocol (set at 120 seconds reading time per well, with normal plate orientation).
(§1) Preparation of Test Compound Dilutions
(§2) All test compounds were provided in powder form at room temperature. 10 mM DMSO stocks of the test compounds were prepared, aliquoted and stored at −20° C. From the 10 mM DMSO stock of the compounds, a 3-fold serial dilution in DMSO was prepared to get a total of 10 dilutions of the test compounds. 0.5 μL of this dilution in DMSO was added to 250 μL of FBS-free basal media containing 3H-taurocholic acid and cold taurocholic acid to prepare the incubation mixture.

The target of experiment [2] is T2, Human IBAT (Homo sapiens, UniProt Q12908).
T2 construct: expressed in transfected cells; Puromycin-selected
T2 sequence (Q12908 1-348): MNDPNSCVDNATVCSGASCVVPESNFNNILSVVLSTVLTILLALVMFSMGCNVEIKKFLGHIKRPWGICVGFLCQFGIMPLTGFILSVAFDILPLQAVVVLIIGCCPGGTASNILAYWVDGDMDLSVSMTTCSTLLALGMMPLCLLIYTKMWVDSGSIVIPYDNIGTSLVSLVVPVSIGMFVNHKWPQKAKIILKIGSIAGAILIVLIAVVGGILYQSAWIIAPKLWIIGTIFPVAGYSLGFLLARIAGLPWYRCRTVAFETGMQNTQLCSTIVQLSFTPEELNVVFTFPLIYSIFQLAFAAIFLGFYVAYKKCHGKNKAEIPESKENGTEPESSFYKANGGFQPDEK
As to the kind of experiment: IBAT (h/m) assay, human IBAT-overexpressing cells, 3H-taurocholic acid uptake. It is filed as cell-based. Conditions: 0.25 μM 3H-taurocholic acid and 5 μM cold taurocholic acid, 20 minutes, read-out: hIBAT IC50. The protocol: IBAT (h/m) Assay Protocol
10,000 cells (Human or Mouse IBAT-overexpressing cells) were seeded in 96-wells plate (Corning CLS3809) in 200 μL MEM-alpha medium (Gibco 12571-063) supplemented with 10% FBS (Gibco 10438026) containing Puromycin (Gibco A1113803) (10 μg/mL) and incubated at 37° C. in 5% CO2 for 48 hours. After incubation, media was decanted from the wells and cells were washed two times with 300 μL of basal MEM-alpha medium (FBS-free). After decanting basal MEM-alpha medium each time, plates were tapped against paper towel to ensure maximum removal of residual media. Test inhibitor dilutions (highest test concentration being 10 μM, 3-fold serial dilution, 10 points) prepared in DMSO (Sigma D2650) were added in incubation mix (maintaining 0.2% final DMSO concentration) containing 0.25 μM 3H-taurocholic acid (ARC ART-1368) and 5 μM of cold taurocholic acid (Sigma T4009). 50 μL of incubation mix containing test inhibitors was then added to the wells (in duplicate) and the plates were incubated for 20 minutes in a CO2 incubator at 37° C. After incubation, the reaction was stopped by keeping the plates on ice water mix for 2-3 minutes and then the incubation mix was aspirated completely from the wells. The wells were washed two times with 250 μL of chilled unlabelled 1 mM taurocholic acid dissolved in HEPES (Gibco 15630080)-buffered (10 mM) HBSS (Gibco 14175079) (pH 7.4). The plates were tapped against a paper towel after every wash to ensure maximum removal of blocking buffer.
100 μL of MicroScint-20 (PerkinElmer 6013621) was added to the wells and kept overnight at room temperature before reading the plates in TopCount NXT™ Microplate Scintillation and Luminescence Counter from PerkinElmer under 3H Test protocol (set at 120 seconds reading time per well).
as §1, §2

Drawing on patent US11773071B2, “Benzothiazepine compounds and their use as bile acid modulators” (Albireo AB, priority 2019, dated 2023), this text covers IC50 for 19 compounds.

As a reminder, the IC50 is the concentration that gives 50% inhibition.

On to `CCCCC1(CCCC)CN(c2ccccc2)c2cc(SC)c(OCC(C)(O)C(=O)O)cc2S(=O)(=O)C1` (racemic) [Example 19, 3-((3,3-Dibutyl-7-(methylthio)-1,1-dioxido-5-phenyl-2,3,4,5-tetrahydro-1,5-benzothiazepin-8-yl)oxy)-2-hydroxy-2-methylpropanoic acid], for which the figures for the IC50 in experiment [1] and in experiment [2] were 601 nM and 39 nM, respectively. On to `CCCCC1(CCCC)CN(c2ccccc2)c2cc(SC)c(OCC(C)(O)C(=O)O)cc2S(=O)(=O)C1` (single isomer, unassigned) [Example 21, 3-((3,3-dibutyl-7-(methylthio)-1,1-dioxido-5-phenyl-2,3,4,5-tetrahydro-1,5-benzothiazepin-8-yl)oxy)-2-hydroxy-2-methylpropanoic acid], for which the IC50 in experiment [1] was 608 nM; in experiment [2] it was 19 nM.

As to `CCCCC1(C)CN(c2ccccc2)c2cc(SC)c(OCC(C)(O)C(=O)O)cc2S(=O)(=O)C1` (single isomer, unassigned) [33, diastereomer 1], the results for the IC50 in experiment [1] and in experiment [2] were 5940 nM and 123 nM, respectively. Taken in the same sequence, the figures for `CCCCC1(CC)CN(c2ccccc2)c2cc(SC)c(OCC(O)C(=O)O)cc2S(=O)(=O)C1` (single isomer, unassigned) [40, diastereomer 2] were 513 nM and 24 nM.

For the compound `CCCCC1(CCCC)CN(c2ccccc2)c2cc(SC)c(OCC(C)(O)C(=O)O)cc2S(=O)(=O)C1` (single isomer, unassigned) [Example 20, 3-((3,3-dibutyl-7-(methylthio)-1,1-dioxido-5-phenyl-2,3,4,5-tetrahydro-1,5-benzothiazepin-8-yl)oxy)-2-hydroxy-2-methylpropanoic acid], the IC50 in experiment [1] amounted to 1390 nM; in experiment [2], 42 nM.

In the case of `CCCCC1(CCCC)CN(c2ccccc2)c2cc(SC)c(OCC(OC)C(=O)O)cc2S(=O)(=O)C1` (racemic) [Example 46, 3-((3,3-Dibutyl-7-(methylthio)-1,1-dioxido-5-phenyl-2,3,4,5-tetrahydro-1,5-benzothiazepin-8-yl)oxy)-2-methoxypropanoic acid], the results for the IC50 in experiment [1] and in experiment [2] were 1480 nM and 26 nM, respectively. As for `CCCCC1(C)CN(c2ccc(F)cc2)c2cc(SC)c(OCCC(=O)O)cc2S(=O)(=O)C1` (racemic) [Example 49, 3-((3-Butyl-5-(4-fluorophenyl)-3-methyl-7-(methylthio)-1,1-dioxido-2,3,4,5-tetrahydro-1,5-benzothiazepin-8-yl)oxy)propanoic acid], the concentration for half-maximal inhibition (IC50) in experiment [2] came out at 10 nM.

With `CCCCC1(CC)CN(c2ccc(F)cc2)c2cc(SC)c(OCC(O)C(=O)O)cc2S(=O)(=O)C1` (single isomer, unassigned) [42, diastereomer 2], the IC50 in experiment [1] worked out at 2310 nM; in experiment [2], 36 nM.

With `CCCCC1(C)CN(c2ccccc2)c2cc(SC)c(OCC(O)C(=O)O)cc2S(=O)(=O)C1` (single isomer, unassigned) [32, diastereomer 2], the IC50 was 4080 nM in experiment [1] and 35 nM in experiment [2]. For the compound `CCCCC1(CC)CN(c2ccccc2)c2cc(SC)c(OCC(N)C(=O)O)cc2S(=O)(=O)C1` (single isomer, unassigned) [36, diastereomer 1], the IC50 in experiment [2] was determined as 76 nM. As to `CCCCC1(CC)CN(c2ccccc2)c2cc(OC)c(OCCC(=O)O)cc2S(=O)(=O)C1` (single isomer, unassigned) [44, enantiomer 2], the values for the 50% inhibitory concentration (IC50) in experiment [1] and in experiment [2] were > 23000 nM and 392 nM, respectively. Take `CCCCC1(CC)CN(c2ccccc2)c2cc(Br)c(OCCC(=O)O)cc2S(=O)(=O)C1` (single isomer, unassigned) [Example 3, 3-((7-bromo-3-butyl-3-ethyl-1,1-dioxido-5-phenyl-2,3,4,5-tetrahydro-1,5-benzothiazepin-8-yl)oxy)propanoic acid]: the IC50 in experiment [1] turned out to be 837 nM; in experiment [2], 241 nM.

`CCCCC1(CC)CN(c2ccccc2)c2cc(N(C)C)c(OCCC(=O)O)cc2S(=O)(=O)C1` (single isomer, unassigned) [Example 18, 3-((3-butyl-7-(dimethylamino)-3-ethyl-1,1-dioxido-5-phenyl-2,3,4,5-tetrahydro-1,5-benzothiazepin-8-yl)oxy)propanoic acid]: the IC50 in experiment [2] worked out at 52 nM. As to `CCCCC1(CC)CN(c2ccc(F)cc2)c2cc(SC)c(OCC(O)C(=O)O)cc2S(=O)(=O)C1` (single isomer, unassigned) [42, diastereomer 3], the 50% inhibitory concentration (IC50) in experiment [1] is 892 nM; in experiment [2], 0.5 nM. With `CCCCC1(C)CN(c2ccc(F)cc2)c2cc(SC)c(OCC(O)C(=O)O)cc2S(=O)(=O)C1` (stereo not drawn) [Example 51, 3-((3-Butyl-5-(4-fluorophenyl)-3-methyl-7-(methylthio)-1,1-dioxido-2,3,4,5-tetrahydro-1,5-benzothiazepin-8-yl)oxy)-2-hydroxypropanoic acid], the IC50 in experiment [2] was 5 nM. On to `CCCCC1(CC)CN(c2ccccc2)c2cc(SC)c(OCC(N)C(=O)O)cc2S(=O)(=O)C1` (single isomer, unassigned) [36, diastereomer 2], for which the half-inhibitory concentration (IC50) in experiment [2] was 5 nM. For `CCCCC1(C)CN(c2ccccc2)c2cc(SC)c(OCC(C)(O)C(=O)O)cc2S(=O)(=O)C1` (single isomer, unassigned) [33, diastereomer 4], the half-inhibitory concentration (IC50) in experiment [1] was 575 nM. On to `CCCC1(CC)CN(c2ccccc2)c2cc(SC)c(OCCC(=O)O)cc2S(=O)(=O)C1` (stereo not drawn) [Example 27, 3-((3-ethyl-7-(methylthio)-1,1-dioxido-5-phenyl-3-propyl-2,3,4,5-tetrahydro-1,5-benzothiazepin-8-yl)oxy)propanoic acid], for which the IC50 in experiment [2] was determined as 62 nM. `CCCCC1(CC)CN(c2ccccc2)c2cc(SC)c(OCC(N)C(=O)O)cc2S(=O)(=O)C1` (stereo not drawn) [Example 28, O-(3-butyl-3-ethyl-7-(methylthio)-1,1-dioxido-5-phenyl-2,3,4,5-tetrahydro-1,5-benzothiazepin-8-yl)serine]: the 50% inhibitory concentration (IC50) in experiment [2] came out at 45 nM.
